Measured values from patent US9949980B2, “Drugs to prevent HPV infection” (Wisconsin Alumni Research Foundation, priority 2008, dated 2018).
Where a name gives a salt, the structure may show the parent alone. Read-outs that look alike come from different tables or passages of the source.

What was measured:
[1] = test system: HPV16 pseudovirus; assay: Luciferase assay: HPV16 pseudovirus with renilla luciferase reporter (HPV16wpA-RL); settings: renilla luciferase reporter behind HPV16 promoter
Description: The protocol for the secondary screen was identical to that of the primary screen with the exception that all volumes were scaled up by a factor of four. RL activity was measured using the Renilla Luciferase Assay System (Promega).

[2] = in vitro; settings: human
[3] = test system: HPV16 pseudoviruses; assay: microbe, parasite or virus in culture; type: cell-based; settings: Human papillomavirus 16, HEK-293T, 48 h
Method in brief: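 Viability was read by CellTiter Glo luminescence on the same wells used for the SEAP infection read-out, after 48 hrs further incubation.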

[4] = Primary HTS Viability % Average
[5] = read-out: Infectivity (SEAP Activity), 3 μM HTS standard concentration, 293T cells, 48 hrs
[6] = read-out: Infectivity vs. viability, 3 μM HTS standard concentration, ratio infectivity/viability
[7] = read-out: Primary HTS SEAP vs Viability, Table 2, first pair of columns (c2)
[8] = read-out: Primary HTS SEAP vs Viability, Table 2, second pair of columns (c4)

| SMILES | Luciferase assay RL % Average [1] [%] | viability at 52 h, 3 μM [2, 4] [%] | viability at 52 h, 3 μM ([2]; Viability (CelTiter Glow)) [%] | activity at 3 µM [3, 5] [%] | activity at 3 µM [3, 6] [%] | activity at 3 µM [3, 7] [%] | activity at 3 µM [3, 8] [%] |
| --- | --- | --- | --- | --- | --- | --- | --- |
| CCOC(=O)CCc1c(C)nc2c(C)c(-c3ccccc3)nn2c1O [Compound 1, ethyl 3-(7-hydroxy-3,5-dimethyl-2-phenylpyrazolo[1,5-a]pyrimidin-6-yl)propanoate] | 64.85 | 85 | 93.4 | 22.9 | 24.5 | 13.1 | 32.6 |
| Cc1cc(O)n2c(nc3ccccc32)c1C(=O)O [Compound 2, 1-hydroxy-3-methylpyrido[1,2-a]benzimidazole-4-carboxylic acid] | 75.09 | – | 101 | 19.7 | 19.6 | 13.5 | 25.9 |
| Cc1nc2ccccn2c1C(=O)NC(C)c1ccccc1 (stereo not shown) [Compound 3, 2-methyl-N-(1-phenylethyl)imidazo[1,2-a]pyridine-3-carboxamide] | 71.67 | 105 | 103 | 20.8 | 20.3 | 18.7 | 23 |
| Cc1ccccc1C(=O)N1CC(C)CC(C)C1 (stereo not shown) [Compound 5, 3,5-dimethyl-1-(2-methylbenzoyl)piperidine] | 102.39 | 102 | 108 | 22.9 | 21.2 | 29.5 | 16.2 |
| CCN1C(=O)c2cccc3c(NC(=O)c4ccc(S(=O)(=O)N(C)C)cc4)ccc1c23 [Compound 6, 4-[(dimethylamino)sulfonyl]-N-(1-ethyl-2-oxo-1,2-dihydrobenzo[cd]indol-6-yl)benzamide] | 71.67 | – | 101 | 26.8 | 26.6 | 24.4 | 29.3 |
| Cc1ccccc1OCCc1c(C)n[nH]c1C [Compound 7, 3,5-dimethyl-4-[2-(2-methylphenoxy)ethyl]-1H-pyrazole] | 68.26 | – | 92.9 | 36.9 | 39.7 | 32 | 41.8 |
| O=C(N(c1cccc(C(F)(F)F)c1)C1C=CS(=O)(=O)C1)C(F)(F)F (stereo not shown) [Compound 8, N-(1,1-dioxido-2,3-dihydro-3-thienyl)-2,2,2-trifluoro-N-[3-(trifluoromethyl)phenyl]acetamide] | 177.47 | 96.4 | 94.4 | 27.7 | 29.4 | 37.3 | 18.1 |
| CN1C(=O)C(c2c[nH]c3ccccc23)(c2c[nH]c3ccccc23)c2ccccc21 [Compound 10, 1′-methyl-1H,1″H-3,3′:3′,3″-terindol-2′(1′H)-one] | 30.72 | – | 105 | 38.8 | 37 | 34.4 | 43.2 |
| O=C1NC(=S)SC1=Cc1ccc(Oc2ccc([N+](=O)[O-])cn2)cc1 [Compound 12, 5-{4-[(5-nitro-2-pyridinyl)oxy]benzylidene)-2-thioxo-1,3-thiazolidin-4-one] | 105.80 | – | 132 | 28.3 | 21.5 | 39.4 | 17.2 |
| O=S1(=O)C=CC(Nc2cccc(C(F)(F)F)c2)C1 (stereo not shown) [Compound 16, (1,1-dioxido-2,3-dihydro-3-thienyl)[3-(trifluoromethyl)phenyl]amine] | 146.76 | 98.2 | 92.9 | 28.4 | 30.6 | 36.1 | 20.6 |
| COc1cccc(NC(=O)c2ccc(C)c([N+](=O)[O-])c2)c1 [Compound 17, N-(3-methoxyphenyl)-4-methyl-3-nitrobenzamide] | 92.15 | – | 86.8 | 43 | 49.6 | 32.9 | 53.2 |
| CC(O)c1cccc(NC(=O)c2cc3n(n2)C(C(F)(F)F)CC(c2ccc(F)cc2)N3)c1 (stereo not shown) [Compound 19, 5-(4-fluorophenyl)-N-[3-(1-hydroxyethyl)phenyl]-7-(trifluoromethyl)-4,5,6,7-tetrahydropyrazolo[1,5-a]pyrimidine-2-carboxamide] | 88.74 | 116 | 107 | 40.8 | 37.9 | 50 | 31.5 |
| Cc1cccc(NC(=O)Nc2ccc(C(C)(C)C)cc2)n1 [Compound 21, 1-(4-tert-butylphenyl)-3-(6-methylpyridin-2-yl)urea] | 109.22 | 92.8 | 92.8 | 43.8 | 47.2 | 34.2 | 53.5 |
| Cc1cccc(C=C2C(=O)NN(c3ccccc3)C2=O)c1 [Compound 6233808, 4-(3-methylbenzylidene)-1-phenyl-3,5-pyrazolidinedione] | – | – | 117 | 58.5 | 50.2 | – | – |
| CC1CCc2c(sc(NC(=O)c3ccccc3)c2C(N)=O)C1 (stereo not shown) [Compound 6239347, 2-(benzoylamino)-6-methyl-4,5,6,7-tetrahydro-1-benzothiophene-3-carboxamide] | – | – | 136 | 55.1 | 40.5 | – | – |
| O=C(NCc1c(Cl)cccc1Oc1ccccc1)Nc1ccc(F)cc1 [HTS 04313, N-(2-chloro-6-phenoxybenzyl)-N′-(4-fluorophenyl)urea] | – | – | 85.3 | 36.4 | 42.7 | – | – |
| N#CCCN1CCCN(CCC#N)CCN(CCC#N)CCCN(CCC#N)CC1 [JFD 02931, 3-[4,8,11-tri(2-cyanoethyl)-1,4,8,11-tetraazacyclotetradecanyl]propanenitrile] | – | – | 99.9 | 46.7 | 46.7 | – | – |
| O=C(CCSc1ccc(C(F)(F)F)cc1)c1ccco1 [MWP 01152, 1-furan-2-yl-3-[4-(trifluoromethyl)phenyl]sulfanylpropan-1-one] | – | – | 103 | 57.8 | 56.1 | – | – |
| CC(=O)Oc1ccc(OC(C)=O)c2c1C1C=CC2CC1 [NRB 00571, 6-(acetyloxy)tricyclo[6.2.2.0~2,7~]dodeca-2(7),3,5,9-tetraen-3-yl acetate] | – | – | 108 | 49.3 | 45.5 | – | – |
| CCNS(=O)(=O)c1ccc(-c2oc3cc(S(=O)(=O)NCC)ccc3c2Cl)cc1 [NRB 00942, 3-chloro-N-ethyl-2-[4-(ethylsulfamoyl)phenyl]-1-benzofuran-6-sulfonamide] | – | – | 99.7 | 37.7 | 37.8 | – | – |
| O=C1C(=Cc2ccccc2)CCCC1CN1CCOCC1 (stereo not shown) [NRB 01540, 2-benzylidene-6-(morpholinomethyl)cyclohexan-1-one hydrochloride] | – | – | 101 | 50.5 | 49.9 | – | – |
| Oc1ccccc1C=NNc1nc2c(Cl)cc(Cl)cc2s1 [RF 02710, 2-hydroxybenzaldehyde N-(4,6-dichloro-1,3-benzothiazol-2-yl)hydrazone] | – | – | 94.9 | 34.6 | 36.4 | – | – |
| ON=Cc1ccc(Cl)s1 [SEW 06085, 5-chlorothiophene-2-carbaldehyde oxime] | – | – | 103 | 54.9 | 53.2 | – | – |
